In patent US9868692B2, “Compounds and compositions for intracellular delivery of therapeutic agents” (MODERNATX, Inc., priority 2015, dated 2018):

How the values were obtained:
[1] = Residual lipid level in liver of rats (UPLC-MS quantification); type: in vivo; details: rat; for % Lipid Remaining in liver, 48 h 2 mpk: assuming 300 g rat and 15 g liver; for concentration at 48 h: intravenous
Method: (§1) To pre-weighed tissues, Milli-Q water was added (900 μL water per 100 mg tissue). Tissues were homogenized using an Omni probe homogenizer until uniform. 50 μL of samples and matrix calibration standards were aliquoted into a 96-well plate. 50 μL of blank matrix for matrix blanks and control blanks were aliquoted. 400 μL IS spiking solution were manually added to all samples except matrix blanks. 400 μL of 50:50 ACN:IPA were manually added to matrix blanks. The plate was covered and the samples vortexed and centrifuged for 5 minutes at >3000 rpm. 200 μL of the samples were transferred into a clean 96-well plate for analysis. […] Detection was based on electrospray ionization (ESI) in positive mode using a Sciex API5500 Mass Spectrometer.
(§2) The expression of hEPO in rats intravenously administered a nanoparticle composition at a dose of 0.2 mpk or 2.0 mpk was measured at 6 hours. […] Liver and spleen levels represent the average values calculated for 3 rats in each group.
(§3) The expression of hEPO and lipid levels in the liver and spleen in rats intravenously administered a nanoparticle composition at a dose of 0.2 mpk was measured at various timepoints. […] Lipids were formulated according to the standard MC3 formulation described above.

[2] = Residual lipid level in spleen of rats (UPLC-MS quantification); type: in vivo; details: rat
Method: as §1, §2, §3

[3] = Particle size, polydispersity index (and zeta potential) of nanoparticle compositions, Zetasizer Nano ZS; type: physicochemical; details: Table 1A formulations
From the text: Nanoparticle compositions may be characterized by a variety of methods. For example, microscopy (e.g., transmission electron microscopy or scanning electron microscopy) may be used to examine the morphology and size distribution of a nanoparticle composition. Dynamic light scattering or potentiometry (e.g., potentiometric titrations) may be used to measure zeta potentials. Dynamic light scattering may also be utilized to determine particle sizes. Instruments such as the Zetasizer Nano ZS (Malvern Instruments Ltd, Malvern, Worcestershire, UK) may also be used to measure multiple characteristics of a nanoparticle composition, such as particle size, polydispersity index, and zeta potential.
A Zetasizer Nano ZS (Malvern Instruments Ltd, Malvern, Worcestershire, UK) can be used to determine the particle size, the polydispersity index (PDI) and the zeta potential of the nanoparticle compositions in 1×PBS in determining particle size and 15 mM PBS in determining zeta potential.

[4] = Encapsulation efficiency of RNA, QUANT-IT RIBOGREEN RNA assay; type: physicochemical; details: Table 1A formulations
From the text: The efficiency of encapsulation of a therapeutic and/or prophylactic describes the amount of therapeutic and/or prophylactic that is encapsulated or otherwise associated with a nanoparticle composition after preparation, relative to the initial amount provided. The encapsulation efficiency is desirably high (e.g., close to 100%). The encapsulation efficiency may be measured, for example, by comparing the amount of therapeutic and/or prophylactic in a solution containing the nanoparticle composition before and after breaking up the nanoparticle composition with one or more organic solvents or detergents. Fluorescence may be used to measure the amount of free therapeutic and/or prophylactic (e.g., RNA) in a solution. For the nanoparticle compositions described herein, the encapsulation efficiency of a therapeutic and/or prophylactic may be at least 50%, for example 50%, 55%, 60%, 65%, 70%, 75%, 80%, 85%, 90%, 91%, 92%, 93%, 94%, 95%, 96%, 97%, 98%, 99%, or 100%. In some embodiments, the encapsulation efficiency may be at least 80%. In certain embodiments, the encapsulation efficiency may be at least 90%.
For nanoparticle compositions including an RNA, a QUANT-IT™ RIBOGREEN® RNA assay (Invitrogen Corporation Carlsbad, Calif.) can be used to evaluate the encapsulation of an RNA by the nanoparticle composition. The samples are diluted to a concentration of approximately 5 μg/mL in a TE buffer solution (10 mM Tris-HCl, 1 mM EDTA, pH 7.5). 50 μL of the diluted samples are transferred to a polystyrene 96 well plate and either 50 μL of TE buffer or 50 μL of a 2% Triton X-100 solution is added to the wells. The plate is incubated at a temperature of 37° C. for 15 minutes. The RIBOGREEN® reagent is diluted 1:100 in TE buffer, and 100 μL of this solution is added to each well. The fluorescence intensity can be measured using a fluorescence plate reader (Wallac Victor 1420 Multilablel Counter; Perkin Elmer, Waltham, Mass.) at an excitation wavelength of, for example, about 480 nm and an emission wavelength of, for example, about 520 nm. The fluorescence values of the reagent blank are subtracted from that of each of the samples and the percentage of free RNA is determined by dividing the fluorescence intensity of the intact sample (without addition of Triton X-100) by the fluorescence value of the disrupted sample (caused by the addition of Triton X-100).

[5] = liver, 0.2 mg/kg, 0.2 mpk, 48 h, average of 3 rats, read-out: Liver level
[6] = liver, 2 mg/kg, 2 mpk, 48 h, average of 3 rats, read-out: Liver level
[7] = intravenous, 0.2 mg/kg, 0.2 mpk, 48 h, average of 3 rats, read-out: Spleen level
[8] = intravenous, 2 mg/kg, 2 mpk, 48 h, average of 3 rats, read-out: Spleen level
[9] = liver, iv, 0.2 mg/kg, 0.2 mpk, 48 hours, read-out: Liver level
[10] = liver, iv, 2 mg/kg, 2 mpk, 48 hours, read-out: Liver level
[11] = iv, 0.2 mg/kg, 0.2 mpk, 48 hours, read-out: Spleen level
[12] = iv, 2 mg/kg, 2 mpk, 48 hours, read-out: Spleen level

SMILES: CCCCCCCCCN(CCO)CCCCCCCC(=O)OC(CCCCCCCC)CCCCCCCC [Compound 3, Heptadecan-9-yl 8-((2-hydroxyethyl)(nonyl)amino)octanoate]
- % Lipid Remaining in liver, 48 h 2 mpk ([1]; 2 mpk, 48 h): 14%

SMILES: CCCCCCCCC(CCCCCCCC)OC(=O)CCCCCCCN(CCO)CCCCCCCC(=O)OCC1CC1CCCCCC (centres unmarked) [Compound 28, Heptadecan-9-yl 8-((8-((2-hexylcyclopropyl)methoxy)-8-oxooctyl)(2-hydroxyethyl)amino)octanoate]
- concentration at 48 h [1, 5]: 49.6 ng/g
- concentration at 48 h [1, 6]: 665 ng/g
- concentration at 48 h [2, 7]: 268 ng/g
- concentration at 48 h [2, 8]: 551 ng/g

SMILES: CCCCCCCCCOC(=O)CCCCCCCN(CCCCCCCC(=O)OC(CCCCCCCC)CCCCCCCC)CCCNC(=S)N(C)C [Compound 111, Heptadecan-9-yl 8-((3-(3,3-dimethylthioureido)propyl)(8-(nonyloxy)-8-oxooctyl)amino)octanoate]
- PDI [3]: 0.14
- EE (%) [4]: 98.2%

SMILES: CCCCCCCCC(CCCCCCCC)OC(=O)CCCCCCCN(CCO)CCCC(=O)OCCCCCC [Compound 53, heptadecan-9-yl 8-((4-(hexyloxy)-4-oxobutyl)(2-hydroxyethyl)amino) octanoate]
- concentration at 48 h [1, 5]: 4810 ng/g
- concentration at 48 h [1, 6]: 47000 ng/g
- concentration at 48 h [2, 7]: 1180 ng/g
- concentration at 48 h [2, 8]: 201000 ng/g

SMILES: CCCCCCCCCOC(=O)CCCCCCCN(CCCCCCCC(=O)OC(CCCCCCCC)CCCCCCCC)CCCN/C(=N/C#N)N(C)C [Compound 168, Heptadecan-9-yl (Z)-8-((3-(2-cyano-3,3-dimethylguanidino)propyl)(8-(nonyloxy)-8-oxooctyl)amino)octanoate]
- PDI [3]: 0.1

SMILES: CCCCCC/C=C\COC(=O)CCCCCCCN(CCO)CCCCCCCC(=O)OC(CCCCCCCC)CCCCCCCC [Compound 24, Heptadecan-9-yl (Z)-8_((2-hydroxyethyl)(8-(non-2-en-1-yloxy)-8-oxooctyl)amino)octanoate]
- % Lipid Remaining in liver, 48 h 2 mpk ([1]; 2 mpk, 48 h): 0.016%

SMILES: CCCCCCCCCOC(=O)CCCCCCCN(CCO)CCCCCCCOC(=O)C(CCCCCCCC)CCCCCCCC [Compound 30, 7-((2-Hydroxyethyl)(8-(nonyloxy)-8-oxooctyl)amino)heptyl 2-octyldecanoate]
- % Lipid Remaining in liver, 48 h 2 mpk ([1]; 2 mpk, 48 h): <0.01%

SMILES: CCCCCCCCCOC(=O)CCCCCCCN(CCCCCCCC(=O)OC(CCCCCCCC)CCCCCCCC)CCCOC(=O)NC [Compound 175, Heptadecan-9-yl 8-((3-((methylcarbamoyl)oxy)propyl)(8-(nonyloxy)-8-oxooctyl)amino)octanoate]
- PDI [3]: 0.2

SMILES: CCCCCCCCC(CCC)OC(=O)CCCCCCCN(CCO)CCCCCCCC(=O)OC(CCCCCCCC)CCCCCCCC (centres unmarked) [Compound 50, dodecan-4-yl 8-((8-(heptadecan-9-yloxy)-8-oxooctyl)(2-hydroxyethyl)amino)octanoate]
- concentration at 48 h [1, 9]: 5820 ng/g
- concentration at 48 h [1, 10]: 79200 ng/g
- concentration at 48 h [2, 11]: 0.22
- concentration at 48 h [2, 12]: 0.17

SMILES: CCCCCCCCCOC(=O)CCCCCCCN(CCO)CCCCCCC(=O)OCC(CCCCCCCC)CCCCCCCC [Compound 143, Nonyl 8-((2-hydroxyethyl)(7-((2-octyldecyl)oxy)-7-oxoheptyl)amino)octanoate]
- PDI [3]: 0.19

SMILES: CCCCCCCCCOC(=O)CCCCCCCN(CCCCCCCC(=O)OC(CCCCCCCC)CCCCCCCC)CCCNC(=O)NC [Compound 112, Heptadecan-9-yl 8-((3-(3-methylureido)propyl)(8-(nonyloxy)-8-oxooctyl)amino)octanoate]
- PDI [3]: 0.12

SMILES: CCCCCCCCC(C)OC(=O)CCCCCCCN(CCO)CCCCCCCC(=O)OC(CCCCCCCC)CCCCCCCC (centres unmarked) [Compound 48, decan-2-yl 8-((8-(heptadecan-9-yloxy)-8-oxooctyl)(2-hydroxyethyl)amino)octanoate]
- concentration at 48 h [1, 9]: 5450 ng/g
- concentration at 48 h [1, 10]: 34500 ng/g
- concentration at 48 h [2, 11]: 0.31
- concentration at 48 h [2, 12]: 0.21

SMILES: CCCCCCCCCOC(=O)CCCN(CCO)CCCCCCCC(=O)OC(CCCCCCCC)CCCCCCCC [Compound 26, Heptadecan-9-yl 8-((2-hydroxyethyl)(4-(nonyloxy)-4-oxobutyl)amino) octanoate]
- % Lipid Remaining in liver, 48 h 2 mpk ([1]; 2 mpk, 48 h): 20%

SMILES: CCCCCCCCCCCOC(=O)CCCCCN(CCO)CCCCCCCC(=O)OC(CCCCCCCC)CCCCCCCC [Compound 25, Heptadecan-9-yl 8-((2-hydroxyethyl)(6-oxo-6-(undecyloxy)hexyl)amino)octanoate]
- concentration at 0.25 h ([1]; liver, iv, 0.2 mg/kg, 0.2 mpk, 0.25 h): 12000 ng/g
- concentration at 0.5 h ([1]; liver, iv, 0.2 mg/kg, 0.2 mpk, 0.5 h): 16400 ng/g
- concentration at 1 h ([1]; liver, iv, 0.2 mg/kg, 0.2 mpk, 1 h): 17900 ng/g
- concentration at 2 h ([1]; liver, iv, 0.2 mg/kg, 0.2 mpk, 2 h): 11700 ng/g
- concentration at 4 h ([1]; liver, iv, 0.2 mg/kg, 0.2 mpk, 4 h): 6690 ng/g
- concentration at 8 h ([1]; liver, iv, 0.2 mg/kg, 0.2 mpk, 8 h): 2360 ng/g
- concentration at 24 h ([1]; liver, iv, 0.2 mg/kg, 0.2 mpk, 24 h): 199 ng/g
- concentration at 48 h ([1]; liver, iv, 0.2 mg/kg, 0.2 mpk, 48 h, read-out: Lipid level in liver): 12000 ng/g
- concentration at 0.25 h ([2]; iv, 0.2 mg/kg, 0.2 mpk, 0.25 h): 4040 ng/g
- concentration at 0.5 h ([2]; iv, 0.2 mg/kg, 0.2 mpk, 0.5 h): 6880 ng/g
- concentration at 1 h ([2]; iv, 0.2 mg/kg, 0.2 mpk, 1 h): 8590 ng/g
- concentration at 2 h ([2]; iv, 0.2 mg/kg, 0.2 mpk, 2 h): 13700 ng/g
- concentration at 4 h ([2]; iv, 0.2 mg/kg, 0.2 mpk, 4 h): 20400 ng/g
- concentration at 8 h ([2]; iv, 0.2 mg/kg, 0.2 mpk, 8 h): 10800 ng/g
- concentration at 24 h ([2]; iv, 0.2 mg/kg, 0.2 mpk, 24 h): 2020 ng/g
- concentration at 48 h ([2]; iv, 0.2 mg/kg, 0.2 mpk, 48 h, read-out: Lipid level in spleen): 1550 ng/g

SMILES: CCCCCCCCC(CCCCCCCC)OC(=O)CCCCCCCN(CCO)CCCC(=O)OC(CCCCC)CCCCCCCC (centres unmarked) [Compound 71, Heptadecan-9-yl 8-((2-hydroxyethyl)(4-oxo-4-(tetradecan-6-yloxy)butyl)amino)octanoate]
- PDI [3]: 0.11

SMILES: CCCCCCCCC(CCCCCCCC)OC(=O)CCCCCCCN(CCO)CCCC(=O)OCCCCCCC [Compound 54, heptadecan-9-yl 8-((4-(heptyloxy)-4-oxobutyl)(2-hydroxyethyl)amino) octanoate]
- concentration at 48 h [1, 5]: 6070 ng/g
- concentration at 48 h [1, 6]: 56100 ng/g
- concentration at 48 h [2, 7]: 6360 ng/g
- concentration at 48 h [2, 8]: 49400 ng/g

SMILES: CCCCCCCCCOC(=O)CCCCCCCN(CCO)CCCCCCCC(=O)OC(CCCCC)CCCCCCCC (centres unmarked) [Compound 33, nonyl 8-((2-hydroxyethyl)(8-oxo-8-(tetradecan-6-yloxy)octyl)amino) octanoate]
- concentration at 48 h [1, 6]: 103 ng/g
- concentration at 48 h [2, 7]: 115 ng/g
- concentration at 48 h [2, 8]: 287 ng/g
